{"source": "patent US11021526B2", "about": "“DSG2-derived peptides” (Asclepiumm Taiwan Co., Ltd, priority 2016, dated 2021)", "key": {"MDCK cells": {"test_system": "MDCK cells", "assay": "EMT assay (HGF-induced EMT, inter-nuclear distance)", "details": "HGF 2.5 ng/ml", "quoted_text": "MDCK cells (800 cells/well) were seeded onto 96-well plate and incubated in 37° C. and 5% CO2 to become 10% sub-confluence. Then EMT was triggered by adding culture medium with cell scattering factor HGF (R&D system, 2.5 ng/ml) and tested peptides were added (SEQ2˜SEQ31) to block EMT. To measure the inter-nuclear distance, random images were captured at ×50 magnification using an upright microscope. The inter-nuclear distance was measured from the center of one nucleus to that of a neighboring/adjacent nucleus. The distance between the two nuclei was measured by using ImageJ software."}, "[1]": {"test_system": "human umbilical vein endothelial cells (HUVEC)", "assay": "HUVEC tube formation assay (angiogenesis assay)", "type": "cell-based", "details": "for collapse of volume of tube structure compared to PBS-treated control: matrigel induced vasculature of HUVEC cells, PBS-dissolved peptides; for inhibition of angiogenesis / HUVEC tube structure: HUVEC on Matrigel, five-hour incubation", "from_the_text": "Overnight starved human umbilical vein endothelial cells (HUVEC) were collected and adjusted to 1.5×10^4 cells/well (in a 96-well plate) with endothelial cell growth medium and then seeded cells on the matrigel-coated well. Different peptides and their modified forms by D-form non-nature amino acids and/or cyclization by adding N- and C-terminal Cystines; also SEQ132 is a reversal of the direction of the peptide backbone SEQ6 (retro modification): (SEQ17, SEQ78, SEQ97, MR9 DF, CMR9C, CMR9C DF, MR9D6 DF, CMR9D6C DF and SEQ132) or control PBS were added into well for five-hour incubation at 37° C. Each well was photographed at ×40 magnification through an upright microscope. Total tube lengths were quantified by using ImageJ software."}, "[2]": {"test_system": "rat eyes choroidal neovascularization", "assay": "Rat laser-induced choroidal neovascularization model", "type": "in vivo", "details": "injected into vitreous body, 14 days after laser; Eylea 200 μg/5 μl, SEQ97 500 μg/5 μl; n=10", "experimental": "The animals were fully anesthetized with a mixture of ketamine hydrochloride/xylazine hydrochloride (7:1, v/v) by intramuscular injection into the thigh muscle at 1 mL/kg. Mydrin®-P ophthalmic solution (Santen Pharmaceutical Co., Ltd.) was instilled into the eyes to dilate the pupils. Laser (wavelength: 532 nm) was used to irradiate the right eye of each animal using a Slit Lamp SL-130 (Carl Zeiss Meditec AG) and a Multicolor Laser Photocoagulator MC-300 (NIDEK Co., Ltd.). Then the peptide dosing formulation was injected into the vitreous body of the right eye using a microsyringe (MS-N10, Ito Corporation) and a 33 G needle (Ito Corporation). Fourteen days after laser irradiation, a 4% FITC-dextran solution was administered into the tail vein in a volume of 1 mL/animal. Then the animals were euthanized by overdose of an anesthetic. The eyeballs were removed and fixed in 4% paraformaldehyde-phosphate buffer for 12-24 hours. Choroidal flat mounts were prepared under a stereoscopic microscope (EZ-4, Leica Microsystems). […]\nEyes of rats were irradiated by 532 nm wave length laser and intraveally treated with peptides (SEQ97), Eylea or PBS. […] After treatment (PBS, Eylea or SEQ97) for 14 days, the photographs of the choroidal neovascularization sites were taken and quantified with ImageJ software. […]"}}, "note": "Entries after “also recorded” stand apart in the source; their conditions may differ. Where a SMILES comes first, the peptide text is derived from it."}
{"compound": "CC[C@H](C)[C@H](NC(=O)[C@@H](NC(=O)[C@H](CO)NC(=O)[C@H](Cc1ccccc1)NC(=O)[C@@H](N)CO)C(C)C)C(=O)N[C@@H](CC(=O)O)C(=O)N[C@@H](CCCCN)C(=O)N1CCC[C@H]1C(=O)N1CCC[C@H]1C(=O)NCC(=O)N[C@@H](CCSC)C(=O)N[C@@H](C)C(=O)N[C@@H](CCC(=O)O)C(=O)N[C@@H](CCCCN)C(=O)N[C@@H](Cc1c[nH]c2ccccc12)C(=O)O", "note": "[SEQ5, SFSVIDKPPGMAEKW] (H-SFSVIDKPPGMAEKW-OH; N-terminus and C-terminus assumed)", "values": [{"measurement": "inhibition of HGF (hepatocyte growth factor) induced EMT (epithelial-mesenchymal transition)", "setting": "MDCK cells", "value": "inhibited"}]}
{"compound": "CC[C@H](C)[C@H](NC(=O)[C@H](CC(C)C)NC(=O)[C@H](Cc1ccccc1)NC(=O)[C@H](CCC(N)=O)NC(=O)[C@@H](NC(=O)[C@H](CCC(=O)O)NC(=O)[C@H](CO)NC(=O)[C@H](CCCNC(=N)N)NC(=O)CNC(=O)[C@H](CC(C)C)NC(=O)[C@H](CCCCN)NC(=O)[C@H](CCCCN)NC(=O)[C@@H](N)CCC(=O)O)[C@@H](C)CC)C(=O)N[C@@H](CO)C(=O)N[C@@H](CC(=O)O)C(=O)O", "note": "[SEQ8, EKKLGRSEIQFLISD] (H-EKKLGRSEIQFLISD-OH; N-terminus and C-terminus assumed)", "values": [{"measurement": "inhibition of HGF (hepatocyte growth factor) induced EMT (epithelial-mesenchymal transition)", "setting": "MDCK cells", "value": "inhibited"}]}
{"compound": "CC[C@H](C)[C@H](NC(=O)[C@H](CCCCN)NC(=O)[C@H](Cc1c[nH]c2ccccc12)NC(=O)[C@H](CCCCN)NC(=O)[C@H](CCC(=O)O)NC(=O)[C@H](C)NC(=O)[C@@H](N)CCSC)C(=O)N[C@@H](C)C(=O)N[C@@H](CCCNC(=N)N)C(=O)N[C@@H](CCC(N)=O)C(=O)N[C@@H](CCC(=O)O)C(=O)O", "note": "[SEQ15, MAEKWKIARQE] (H-MAEKWKIARQE-OH; N-terminus and C-terminus assumed)", "values": [{"measurement": "inhibition of HGF (hepatocyte growth factor) induced EMT (epithelial-mesenchymal transition)", "setting": "MDCK cells", "value": "excellent inhibiting abilities similar to SEQ6"}]}
{"compound": "CC[C@H](C)[C@H](NC(=O)[C@H](CCCCN)NC(=O)[C@H](Cc1c[nH]c2ccccc12)NC(=O)[C@H](CCCCN)NC(=O)[C@H](CCC(=O)O)NC(=O)[C@H](C)NC(=O)[C@@H](N)CCSC)C(=O)N[C@@H](C)C(=O)N[C@@H](CCCNC(=N)N)C(=O)O", "note": "[SEQ17, MAEKWKIAR] (H-MAEKWKIAR-OH; N-terminus and C-terminus assumed)", "values": [{"measurement": "inhibition of HGF (hepatocyte growth factor) induced EMT (epithelial-mesenchymal transition)", "setting": "MDCK cells", "value": "advantageous effect in the inhibition of EMT; also recorded: excellent inhibiting abilities similar to SEQ6"}]}
{"compound": "CMAEKWKIARDDDDDDC [CMR9D6C DF]", "values": [{"measurement": "collapse of volume of tube structure compared to PBS-treated control", "setting": "[1]", "value": 95, "unit": "%"}]}
{"compound": "Eylea: Eylea, comparator treatment (200 μg/5 μl) in the rat choroidal neovascularization model [reference compound]", "values": [{"measurement": "inhibition of rat eyes choroidal neovascularization", "setting": "[2]", "value": "significantly inhibit"}]}
{"compound": "MAEKWKIARDDDDDD [MR9D6 DF]", "values": [{"measurement": "collapse of volume of tube structure compared to PBS-treated control", "setting": "[1]", "value": 95, "unit": "%"}]}
{"compound": "MAEKWKIARDDDDDD [SEQ97]", "values": [{"measurement": "inhibition of rat eyes choroidal neovascularization", "setting": "[2]", "value": "significantly inhibit"}, {"measurement": "inhibition of angiogenesis / HUVEC tube structure", "setting": "[1]", "value": "inhibit angiogenesis"}]}
{"compound": "RRRRRRRMAEKWKIAR [SEQ78]", "values": [{"measurement": "inhibition of angiogenesis / HUVEC tube structure", "setting": "[1]", "value": "inhibit angiogenesis"}]}
{"compound": "VSTSEQRAIKWKEAM [SEQ132]", "values": [{"measurement": "inhibition of angiogenesis / HUVEC tube structure", "setting": "[1]", "value": "strong efficacy to inhibit HUVEC tube structure"}]}
